Data published in article PMC11272584 (Nature Metabolism, 2024).
Where two headings read alike, the source gives them in different places.

Experiments:
GLP-1R = target: T1, GLP-1R (Homo sapiens, UniProt P43220); conditions: cited from earlier work
T1 construct: expressed in transfected cells; host or cells: parental HEK293A cells and β-arrestin 1/2 KO HEK293A cells
Description: (§1) Development of similar Gs biased analogues for the GIPR has also been proposed. Although it is not possible to genetically instrument the dual agonistic effects, our results and those of others[33] highlight that decreased recruitment of β-arrestins might benefit the GLP-1R system[36],[37] but not for the GIPR regarding its role in glycaemic control. Ye ...

GIPR = conditions: cited from earlier work
Description: as §1

SNAP-GIPR T116R = conditions: HEK293A
GIPR variants (groups) [1] = system: GIPR variants (groups)
Description: This prompted us to further assess the role of β-arrestin for GIPR signalling by investigating the endosomal signalling in representative GIPR variants from each of the six in vitro-based groups.
At 48 h post-transfection, cells were washed with HBSS and subsequently maintained in 80 µl HBSS. […] Light emission at 515/20 nm (acceptor; rGFP) and 400/70 nm (donor; Rluc8) was measured using a Tecan Spark multimode microplate reader (Männedorf).

GIPR variants (groups) [2] = system: GIPR variants (groups); remark: listed apart in the source
Description: Binding experiments were performed simultaneously with the same transiently transfected HEK293 cells used for the cAMP experiments to enable the correlation of receptor expression with signalling between assays. In brief, 1 day before the assay, the transfected cells were seeded in a clear 96-well plate. […] On the assay day, the cells were washed twice with 4 °C binding buffer (50 mM HEPES buffer (pH 7.2), 1 mM CaCl2, 5 mM MgCl2 and 0.5% (wt/vol) bovine serum albumin) and incubated for 15 minutes at 4 °C. […] After incubation, the cells were washed in ice-cold binding buffer and lysed with 200 mmol l^−1 NaOH with 1% sodium dodecyl sulphate for 30 min. The gamma radiation was measured with a 2470 Wizard2 Automatic Gamma Counter.
To obtain Emax, EC50, Bmax, Kd and IC50 values, we analysed the data with the non-linear regression curve fitting program GraphPad Prism Software 9 (GraphPad).
The Bmax was calculated according to the following equation[51]: Bmax=B0×IC50/[L] in which B0 represents the total specific binding and [L] is the ligand concentration. The equilibrium dissociation constant (Kd) was obtained with the equation[51]: Kd=IC50−[L]

SNAP-GIPR P195R = conditions: HEK293A
GIPR W90Lfs*17 [3] = conditions: GIPR W90Lfs* (ECD), mean, n = 5, duplicate
Description: HEK293 (CRL-1573, American Type Culture Collection) and β-arrestin 1/2 knockout cells, generated from HEK293A[48], were used for cAMP measurement, homologues competition binding and β-arrestin 2 recruitment. […] Both cell lines were cultured at 5% CO2 at 37 °C in Roswell Park Memorial Institute GlutaMAX-I supplemented with 10% fetal bovine serum, 180 units ml^−1 penicillin, and 45 g ml^−1 streptomycin. […] The polyethyleneimine (PEI) transfection method was used for the β-arrestin 2 recruitment assays[50], endosomal signalling and basal receptor localization assays, while the lipofectamine transfection method was used for the internalization assay.
Measurement of β-arrestin 2 recruitment was performed with a BRET assay. Two days before the assay, the HEK293 cells were transiently transfected with either WT GIPR or the GIPR variants together with the donor Rluc8-Arrestin-3-Sp1, the acceptor mem-linker-citrine-SH3 and the GPCR kinase 2 to facilitate β-arrestin 2 recruitment. On assay day, the cells were washed with PBS and resuspended in PBS supplemented with 5 mmol l^−1 glucose. Subsequently, 85 µl of the cell suspension was transferred to a white 96-well plate and 10 µl of 50 µM coelenterazine-h was added.

SNAP-GIPR A185V = conditions: HEK293A
SNAP-GIPR M67R = conditions: HEK293A
SNAP-GIPR V99I = conditions: HEK293A
GIPR variants (groups) [4] = system: GIPR variants (groups); remark: listed apart in the source
SNAP-WT GIPR = conditions: HEK293A
SNAP-GIPR A150T = conditions: HEK293A
WT GIPR = conditions: cited from earlier work
GIPR variants (groups) [5] = test: cAMP accumulation; type: cell-based, human
Description: (§4) HEK293 (CRL-1573, American Type Culture Collection) and β-arrestin 1/2 knockout cells, generated from HEK293A[48], were used for cAMP measurement, homologues competition binding and β-arrestin 2 recruitment. For the internalization assay, endosomal signalling and basal receptor localization experiments, HEK293A (R70507, Thermo Fisher) cells were used. Both cell lines were cultured at 5% CO2 at 37 °C in Roswell Park Memorial Institute GlutaMAX-I supplemented with 10% fetal bovine serum, 180 units ml^−1 penicillin, and 45 g ml^−1 streptomycin. For the cAMP and binding experiments, cells were transfected with the calcium phosphate precipitation method[49]. The polyethyleneimine (PEI) transfection method was used for the β-arrestin 2 recruitment assays[50], endosomal signalling and basal receptor localization assays, while the lipofectamine transfection method was used for the internalization assay.
cAMP production was measured with the DiscoverX Hithunter cAMP assay according to the manufacturer’s protocol (DiscoverX). […] On the day of the assay, the cells were washed twice with HEPES-buffered saline (HBS) and incubated with HBS and 1 mM 3-isobutyl-1-methylxanthine for 30 min at 37 °C. […] After the incubation, the assay medium was removed from the plate and the cells were washed with 30 µl PBS and treated with 40 µl enzyme donor–lysis buffer–chemiluminescent reagents and 10 µl cAMP antibodies for 60 min before 40 µl enzyme acceptor solution added. After a 3-h incubation on a shaking table in the dark, the cAMP accumulation was measured based on luminescence with a Perkin Elmer EnVision 2104 Multilabel Microplate Reader.
For cAMP accumulation, the data were fitted as a sigmoidal curve with a Hill slope of 1; for homologous competition binding, the data were fitted as a sigmoidal curve with a Hill slope of −1.

GIPR variants (groups) [6] = test: β-arrestin 2 recruitment (BRET);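 also: BRET readout of β-arrestin 2 recruitment in transiently transfected HEK293 cells expressing WT GIPR or a GIPR variant plus GPCR kinase 2, Rluc8 donor and citrine acceptor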
SNAP-GIPR Y73H = conditions: HEK293A
GIPR W90Lfs*17 [7] = test: cAMP accumulation; type: cell-based, human; conditions: W90Lfs*; HEK293; GIP(1–42) 1 pM–100 nM, 30 min 37 °C; mean of n = 5
Description: as §4
cAMP production was measured with the DiscoverX Hithunter cAMP assay according to the manufacturer’s protocol (DiscoverX). […] On the day of the assay, the cells were washed twice with HEPES-buffered saline (HBS) and incubated with HBS and 1 mM 3-isobutyl-1-methylxanthine for 30 min at 37 °C. […] After a 3-h incubation on a shaking table in the dark, the cAMP accumulation was measured based on luminescence with a Perkin Elmer EnVision 2104 Multilabel Microplate Reader. […]

SNAP-GIPR A207V = conditions: HEK293A
WT male mice = test: IPGTT in WT male mice; type: in vivo, mouse; parameters: Mean difference in glucose (WT + Veh. vs. WT + GLP-1): unit not given here; conditions: for Mean difference in glucose (WT + Veh. vs. WT + GLP-1): injected 15 min before glucose, n = 14 veh., 13
Description: (§2) We therefore explored the functional relationship between β-arrestin recruitment and GIP-stimulated glucose regulation by conducting pharmacological interventions in a murine genetic global germline β-arrestin 2 (Arrb2) knockout (KO) model.
(§3) Studies were approved by and performed according to the guidelines of the Institutional Animal Care and Use Committee of Duke University. Male Arrb2 KO mice (Arrb2^−/−) ~12–15 weeks of age were generously provided by Drs Howard Rockman and Robert Lefkowitz at Duke University[70]. The mice were kept in standard housing conditions with a temperature of 20–26 °C and a 12-h dark/light cycle to ensure the physiological and psychological wellbeing of the mice. Mice were fed research diets 5053. We restrictedly used male mice because of the potential impact of the sexual dimorphism, that is, the oestrus cycle in female mice on cardiometabolic traits, resulting in unwanted variability and to ensure comparability to existing research predominantly using male mice[71]. The mice were subjected to an IPGTT. […] Data collection and analysis were not randomized or blind to the conditions of the experiments. The statistical analysis was performed in GraphPad Prism.

male Arrb2 KO mice = test: IPGTT in male Arrb2 KO mice; type: in vivo, mouse; parameters: Mean difference in glucose (Arrb2-/- + Veh. vs. Arrb2-/- + GLP-1): unit not given here; conditions: for Mean difference in glucose (Arrb2-/- + Veh. vs. Arrb2-/- + GLP-1): injected 15 min before glucose, n = 13 veh., 10
Description: as §2, §3

[8] = system: β cell-specific β-arrestin 2 KO female mice; conditions: cited from earlier work
Description: In contrast, GIP-potentiated insulin secretion relied on β-a ...

GIPR S64P = target: T2, GIPR S64P (Homo sapiens, UniProt P48546, S64P); test: cAMP accumulation; type: cell-based
T2 construct: host or cells: HEK293
T2 sequence (P48546 22-466 S64P): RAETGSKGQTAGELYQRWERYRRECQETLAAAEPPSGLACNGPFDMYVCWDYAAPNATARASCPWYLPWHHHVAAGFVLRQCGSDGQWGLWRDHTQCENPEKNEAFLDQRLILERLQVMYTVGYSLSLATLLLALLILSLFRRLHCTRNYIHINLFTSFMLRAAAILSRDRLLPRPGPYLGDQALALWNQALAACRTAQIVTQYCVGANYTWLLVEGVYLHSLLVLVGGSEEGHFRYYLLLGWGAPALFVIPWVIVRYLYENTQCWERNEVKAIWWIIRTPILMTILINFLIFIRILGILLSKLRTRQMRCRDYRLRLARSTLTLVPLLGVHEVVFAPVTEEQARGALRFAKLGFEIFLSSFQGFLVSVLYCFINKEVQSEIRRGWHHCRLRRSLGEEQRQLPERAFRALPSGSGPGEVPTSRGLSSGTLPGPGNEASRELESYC
Description: HEK293 (CRL-1573, American Type Culture Collection) and β-arrestin 1/2 knockout cells, generated from HEK293A[48], were used for cAMP measurement, homologues competition binding and β-arrestin 2 recruitment. […] Both cell lines were cultured at 5% CO2 at 37 °C in Roswell Park Memorial Institute GlutaMAX-I supplemented with 10% fetal bovine serum, 180 units ml^−1 penicillin, and 45 g ml^−1 streptomycin. For the cAMP and binding experiments, cells were transfected with the calcium phosphate precipitation method[49].
cAMP production was measured with the DiscoverX Hithunter cAMP assay according to the manufacturer’s protocol (DiscoverX). […] On the day of the assay, the cells were washed twice with HEPES-buffered saline (HBS) and incubated with HBS and 1 mM 3-isobutyl-1-methylxanthine for 30 min at 37 °C. […] After the incubation, the assay medium was removed from the plate and the cells were washed with 30 µl PBS and treated with 40 µl enzyme donor–lysis buffer–chemiluminescent reagents and 10 µl cAMP antibodies for 60 min before 40 µl enzyme acceptor solution added. After a 3-h incubation on a shaking table in the dark, the cAMP accumulation was measured based on luminescence with a Perkin Elmer EnVision 2104 Multilabel Microplate Reader. […]

[9] = M67R, Y73H, V99I, T116R, A150T, A185V, P195R and A207V
[10] = R12Q, L13F, R38L, A294V, I299V, E354Q, S415I, E418K, G449A and E463Q
[11] = T25R, R43G, R164Q, H166Y, I221M and K397N

T1 sequence (P43220 24-463, species assumed): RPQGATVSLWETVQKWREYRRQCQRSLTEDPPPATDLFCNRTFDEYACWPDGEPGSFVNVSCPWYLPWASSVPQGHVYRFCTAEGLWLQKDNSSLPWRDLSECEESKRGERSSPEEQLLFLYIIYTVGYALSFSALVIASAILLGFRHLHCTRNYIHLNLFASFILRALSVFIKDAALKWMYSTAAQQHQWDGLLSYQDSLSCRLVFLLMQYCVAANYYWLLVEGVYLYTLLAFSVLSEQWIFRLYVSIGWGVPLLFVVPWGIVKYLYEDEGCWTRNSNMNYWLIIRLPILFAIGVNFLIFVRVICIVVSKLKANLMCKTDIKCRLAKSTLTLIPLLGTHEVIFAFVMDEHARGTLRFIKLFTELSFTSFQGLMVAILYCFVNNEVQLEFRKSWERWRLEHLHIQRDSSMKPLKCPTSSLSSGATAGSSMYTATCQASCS

tirzepatide: GIPR–GLP-1R co-agonist
cAMP pathway activation at the GLP-1R (GLP-1R): full activation of the cAMP pathway | β-arrestin recruitment to the GLP-1R (GLP-1R): less recruitment of β-arrestin | GIPR activation (GIPR): activation of GIPR as native GIP

glucose-dependent insulinotropic polypeptide [GIP]
Emax (Dose-response), internalization (SNAP-GIPR T116R; GIP 1 nM–1 µM, 37 °C, n = 4): 93 % of maximal SNAP-WT GIPR inte | LogEC50 (Dose-response), internalization (SNAP-GIPR T116R; Hill slope 1.0, n = 4): -7.6 | Endosomal signalling (GIPR variants (groups) [1]; variants that retained β-arrestin recruitment): effectively recruited mGs to early endosomes | Endosomal signalling (GIPR variants (groups) [1]; variants with diminished β-arrestin recruitment): minimal to no signalling from early endosomes | GIP binding (GIPR variants (groups) [2]; R190Q and E288G): maintained GIP binding | GIP binding (GIPR variants (groups) [2]; S64P, C84Pfs*70, R101H, Y258Sfs*50 and Q400Gfs*56): undetectable GIP binding | Binding capacity of GIP (Bmax) (GIPR variants (groups) [2]; all 29 LoF variants): impaired | Emax (Dose-response), internalization (SNAP-GIPR P195R; GIP 1 nM–1 µM, 37 °C, n = 4): 77 % of maximal SNAP-WT GIPR inte | LogEC50 (Dose-response), internalization (SNAP-GIPR P195R; Hill slope 1.0, n = 4): -7.2 | logEC50 (Arrestin) (GIPR W90Lfs*17 [3]; Hill slope 1.0): -10.8 | Arrestin (Emax) (GIPR W90Lfs*17 [3]; normalized to WT GIPR): 15 | Emax (Dose-response), internalization (SNAP-GIPR A185V; GIP 1 nM–1 µM, 37 °C, n = 4): 89 % of maximal SNAP-WT GIPR inte | LogEC50 (Dose-response), internalization (SNAP-GIPR A185V; Hill slope 1.0, n = 4): -7.5 | Emax (Dose-response), internalization (SNAP-GIPR M67R; GIP 1 nM–1 µM, 37 °C, n = 4): 98 % of maximal SNAP-WT GIPR inte | LogEC50 (Dose-response), internalization (SNAP-GIPR M67R; Hill slope 1.0, n = 4): -6.6 | Emax (Dose-response), internalization (SNAP-GIPR V99I; GIP 1 nM–1 µM, 37 °C, n = 4): 92 % of maximal SNAP-WT GIPR inte | LogEC50 (Dose-response), internalization (SNAP-GIPR V99I; Hill slope 1.0, n = 4): -6.9 | Level of internalization (GIPR variants (groups) [4]; M67R, V99I and P195R): slightly diminished internalization | Internalization (GIPR variants (groups) [4]; R190Q and E288G (LoFcAMP/LoFarr)): did not internalize | Level of internalization (GIPR variants (groups) [4]; Y73H, T116R, A150T, A185V and A207V): nearly identical levels of internalization as the WT GIPR | Internalization (GIPR variants (groups) [4]; all eight LoFcAMP/WT-likearr variants): preserved internalization capabilities | Emax (Dose-response), internalization (SNAP-WT GIPR; GIP 1 nM–1 µM, 37 °C, n = 4): 100 % of maximal SNAP-WT GIPR inte | LogEC50 (Dose-response), internalization (SNAP-WT GIPR; Hill slope 1.0, n = 4): -7.5 | Emax (Dose-response), internalization (SNAP-GIPR A150T; GIP 1 nM–1 µM, 37 °C, n = 4): 98 % of maximal SNAP-WT GIPR inte | LogEC50 (Dose-response), internalization (SNAP-GIPR A150T; Hill slope 1.0, n = 4): -7.6 | β-arrestin isoform recruitment (WT GIPR): predominantly recruits β-arrestin 2 over β-arrestin 1 | cAMP signalling activity at 100 pM GIP (GIPR variants (groups) [5]; 29 partial and complete LoF variants, 100 pM GIP): < 50 % of WT | cAMP production class (GIPR variants (groups) [5]; [9]): LoF (defined as <50% activity in either pathway) | cAMP production class (GIPR variants (groups) [5]; [10]): WT-like | cAMP production at higher GIP doses (GIPR variants (groups) [5]; R183Q, R190Q and R300W, higher GIP doses): cAMP production was restored | cAMP signalling (GIPR variants (groups) [5]; R190Q and E288G): impaired cAMP signalling | cAMP production class (GIPR variants (groups) [5]; [11]): maintained cAMP production | cAMP signalling at 100 pM GIP (GIPR variants (groups) [5]; T116R, R183Q, R190Q and R300W, 100 pM GIP): no cAMP signalling | β-arrestin recruitment (GIPR variants (groups) [6]; 21 of the 29 variants with impaired cAMP production (LoFcAMP/LoFarr)): impaired β-arrestin recruitment | β-arrestin recruitment class (GIPR variants (groups) [6]; [9]): WT-like | β-arrestin recruitment class (GIPR variants (groups) [6]; [10]): WT-like | β-arrestin recruitment (GIPR variants (groups) [6]; R190Q and E288G): impaired cAMP signalling and β-arrestin recruitment | β-arrestin recruitment class (GIPR variants (groups) [6]; [11]): low β-arrestin recruitment | β-arrestin 2 recruitment potency (GIPR variants (groups) [6]; most of 47 variants, apart from a few lacking recruitment): no major differences in potency | Emax (Dose-response), internalization (SNAP-GIPR Y73H; GIP 1 nM–1 µM, 37 °C, n = 4): 101 % of maximal SNAP-WT GIPR inte | LogEC50 (Dose-response), internalization (SNAP-GIPR Y73H; Hill slope 1.0, n = 4): -7.4 | cAMP (Emax) (GIPR W90Lfs*17 [7]): 11 % of WT GIPR activity | Emax (Dose-response), internalization (SNAP-GIPR A207V; GIP 1 nM–1 µM, 37 °C, n = 4): 98 % of maximal SNAP-WT GIPR inte | LogEC50 (Dose-response), internalization (SNAP-GIPR A207V; Hill slope 1.0, n = 4): -7.6

glucagon-like peptide-1 [GLP-1]
Blood glucose lowering in IPGTT (WT male mice; WT male mice, 15 min before IPGTT): significantly lowered blood glucose levels | Mean difference in glucose (WT + Veh. vs. WT + GLP-1) (WT male mice; time 0, P = 0.031): 19.9 | Mean difference in glucose (WT + Veh. vs. WT + GLP-1) (WT male mice; time 15 minutes, P = 0.025): 40.3 | Mean difference in glucose (WT + Veh. vs. WT + GLP-1) (WT male mice; time 30 minutes, P = 0.094): 28.3 | Mean difference in glucose (WT + Veh. vs. WT + GLP-1) (WT male mice; time 60 minutes, P = 0.535): 8.13 | Mean difference in glucose (WT + Veh. vs. WT + GLP-1) (WT male mice; time 120 minutes, P = 0.741): -1.82 | Blood glucose lowering in IPGTT (male Arrb2 KO mice; male Arrb2 KO mice, 15 min before IPGTT): able to lower blood glucose | Mean difference in glucose (Arrb2-/- + Veh. vs. Arrb2-/- + GLP-1) (male Arrb2 KO mice; time 0, P = 0.011): 20.9 | Mean difference in glucose (Arrb2-/- + Veh. vs. Arrb2-/- + GLP-1) (male Arrb2 KO mice; time 15 minutes, P = 0.008): 44.9 | Mean difference in glucose (Arrb2-/- + Veh. vs. Arrb2-/- + GLP-1) (male Arrb2 KO mice; time 30 minutes, P = 0.0038): 39.3 | Mean difference in glucose (Arrb2-/- + Veh. vs. Arrb2-/- + GLP-1) (male Arrb2 KO mice; time 60 minutes, P = 0.216): 8.48 | Mean difference in glucose (Arrb2-/- + Veh. vs. Arrb2-/- + GLP-1) (male Arrb2 KO mice; time 120 minutes, P = 0.796): 3.39 | Insulinotropic properties (male Arrb2 KO mice; β-arrestin KO mice): maintained its insulinotropic properties | Acute glycaemic control [8]: reduced acute GLP-1-mediated glycaemic control

B1: S64P (protein)
chain: T2 sequence (P48546 22-466 S64P)
In vitro groups (cAMP) (GIPR variants (groups) [5]; cAMP part of the in vitro group): LoF_camp | percentage_camp (GIPR variants (groups) [5]; cAMP production compared with WT): <50% cAMP | Beta, cAMP (GIPR variants (groups) [5]; in vitro cAMP production per GIPR variant): 0 | In vitro groups (β-arrestin) (GIPR variants (groups) [6]; arr part of the in vitro group): LoF_arr | Beta, Barr (GIPR variants (groups) [6]; in vitro β-arrestin recruitment per GIPR variant): 0 | Efficacy at 100pmol (cAMP) (GIPR S64P): 0
